Measurements published in ChEMBL document CHEMBL1201862, “PubChem BioAssay data set” (2004).
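Dose response: 5 concentrations. Exposure: 48 h. Format: 96-well plates. Endpoint: linear interpolation; highest concentration if not reached. At the GI50, growth is halved.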 Activity calls are given as the source filed them. Rule as the data show it: active = GI50 up to about 1.1 µM and inactive = higher.

How the values were obtained:
Assay in all cases: DTP human tumour cell line panel, 48 h
[1] = test system: Hs-578T
[2] = test system: SK-OV-3
[3] = test system: NCI/ADR-RES
[4] = test system: SK-MEL-28
[5] = test system: UACC-62
[6] = test system: SF-295
[7] = test system: MDA-N
[8] = test system: UO-31
[9] = test system: NCI-H23
[10] = test system: HT-29
[11] = test system: MDA-MB-231
[12] = test system: MCF7
[13] = test system: ACHN
[14] = test system: EKVX
[15] = test system: SF-268
[16] = test system: OVCAR-3
[17] = test system: SNB-75
[18] = test system: SN12C
[19] = test system: TK-10
[20] = test system: U-251

Row | Compound | GI50 [1] | GI50 [2] | GI50 [3] | GI50 [4] | GI50 [5] | GI50 [6] | GI50 [7] | GI50 [8] | GI50 [9] | GI50 [10] | GI50 [11] | GI50 [12] | GI50 [13] | GI50 [14] | GI50 [15] | GI50 [16] | GI50 [17] | GI50 [18] | GI50 [19] | GI50 [20]
1 | C/C(=N/NC(=S)Nc1cccc(Cl)c1)c1ccccn1 | 0.429 µM (active) | 0.265 µM (active) | < 0.018 µM (active) | 2.21 µM (inactive) | 0.202 µM (active) | 0.366 µM (active) | 0.776 µM (active) | 0.269 µM (active) | 0.463 µM (active) | 0.0488 µM (active) | < 0.0172 µM (active) | 0.0151 µM (active) | 0.194 µM (active) | 0.0977 µM (active) | 0.142 µM (active) | 0.0365 µM (active) | 2.95 µM (inactive) | 0.255 µM (active) | 0.322 µM (active) | 0.0885 µM (active)
2 | CC(C)=NOC(=O)OC[C@H]1O[C@@H](n2cnc3c(N)ncnc32)C(O)C1O (stereo not given in full) | > 100 µM (inactive) | > 100 µM (inactive) | > 100 µM (inactive) | > 100 µM (inactive) | > 10 µM (inactive) | > 100 µM (inactive) | 43.3 µM (inactive) | > 100 µM (inactive) | > 100 µM (inactive) | 85.3 µM (inactive) | > 100 µM (inactive) | 91.6 µM (inactive) | > 100 µM (inactive) | > 100 µM (inactive) | > 100 µM (inactive) | > 100 µM (inactive) | > 100 µM (inactive) | > 100 µM (inactive) | > 100 µM (inactive) | > 100 µM (inactive)
3 | Nc1nc(N)c(N=O)c(Nc2ccc(O)cc2)n1 | 13.7 µM (inactive) | 18.1 µM (inactive) | 1.58 µM (inactive) | 11.5 µM (inactive) | 41 µM (inactive) | > 44.7 µM (inactive) | 28.8 µM (inactive) | 41.5 µM (inactive) | 49.9 µM (inactive) | 18 µM (inactive) | > 58.3 µM (inactive) | 5.97 µM (inactive) | 46.2 µM (inactive) | > 69.8 µM (inactive) | 38 µM (inactive) | 47.2 µM (inactive) | 18.2 µM (inactive) | 31.1 µM (inactive) | > 63 µM (inactive) | > 52 µM (inactive)
4 | N#Cc1nc(C(O)c2ccccc2)oc1N (stereo not given) | > 100 µM (inactive) | > 100 µM (inactive) | > 100 µM (inactive) | > 100 µM (inactive) | > 100 µM (inactive) | > 100 µM (inactive) | > 100 µM (inactive) | > 100 µM (inactive) | > 100 µM (inactive) | > 100 µM (inactive) | > 100 µM (inactive) | > 100 µM (inactive) | > 100 µM (inactive) | > 100 µM (inactive) | > 100 µM (inactive) | > 100 µM (inactive) | > 100 µM (inactive) | > 100 µM (inactive) | > 100 µM (inactive) | > 100 µM (inactive)
5 | N=C(N)NC(=N)Nc1c(F)c(F)c(F)c(F)c1F | 95.3 µM (inactive) | > 100 µM (inactive) | > 100 µM (inactive) | > 100 µM (inactive) | > 100 µM (inactive) | > 100 µM (inactive) | 69.7 µM (inactive) | > 100 µM (inactive) | 87.1 µM (inactive) | 96.8 µM (inactive) | 62.2 µM (inactive) | 49.4 µM (inactive) | > 100 µM (inactive) | 44.1 µM (inactive) | > 100 µM (inactive) | > 100 µM (inactive) | > 100 µM (inactive) | > 100 µM (inactive) | 95.9 µM (inactive) | > 100 µM (inactive)
6 | O=C(OCc1ccccc1)c1ccc(NCc2cc(O)ccc2O)cc1 | 1.51 µM (inactive) | 2.7 µM (inactive) | 1.47 µM (inactive) | 1.63 µM (inactive) | 1.56 µM (inactive) | 6.12 µM (inactive) | 1.56 µM (inactive) | 1.32 µM (inactive) | 1.53 µM (inactive) | 6.24 µM (inactive) | 1.91 µM (inactive) | 2.01 µM (inactive) | 1.43 µM (inactive) | 1.75 µM (inactive) | 1.36 µM (inactive) | 1 µM (active) | 0.906 µM (active) | 1.38 µM (inactive) | 1.95 µM (inactive) | 1.29 µM (inactive)
7 | COC(=O)N[C@@H]1C[C@H]2CC[C@]1(O[Si](C(C)C)(C(C)C)C(C)C)C(=O)C2 | 10.3 µM (inactive) | 21.3 µM (inactive) | 14.8 µM (inactive) | 14.6 µM (inactive) | 15.6 µM (inactive) | 14.7 µM (inactive) | 21.9 µM (inactive) | 14.1 µM (inactive) | 17.1 µM (inactive) | 19.1 µM (inactive) | 20.5 µM (inactive) | 21.1 µM (inactive) | 18.4 µM (inactive) | 15.4 µM (inactive) | 12.9 µM (inactive) | 17.7 µM (inactive) | 20 µM (inactive) | 33.5 µM (inactive) | 14.7 µM (inactive) | > 10 µM (inactive)
8 | CCOC(=O)c1[nH]c(Br)c(-c2ccc(Br)cc2)c1Br | 0.395 µM (active) | 1.69 µM (inactive) | 0.201 µM (active) | 0.366 µM (active) | 0.234 µM (active) | 0.263 µM (active) | 0.213 µM (active) | 1.32 µM (inactive) | 2.14 µM (inactive) | 0.327 µM (active) | 1.2 µM (inactive) | 1.87 µM (inactive) | 1.13 µM (inactive) | 7.18 µM (inactive) | 0.543 µM (active) | 0.237 µM (active) | 0.327 µM (active) | 0.45 µM (active) | 3.23 µM (inactive) | 0.454 µM (active)
9 | COc1ccc2[nH]c3c(c2c1)CC(=O)N1CCC[C@H](C1)CC31OCCCO1 | 86.7 µM (inactive) | > 100 µM (inactive) | > 100 µM (inactive) | > 100 µM (inactive) | 77.1 µM (inactive) | > 100 µM (inactive) | > 100 µM (inactive) | > 100 µM (inactive) | > 100 µM (inactive) | > 100 µM (inactive) | > 100 µM (inactive) | > 100 µM (inactive) | > 100 µM (inactive) | > 100 µM (inactive) | > 100 µM (inactive) | > 100 µM (inactive) | 86.9 µM (inactive) | > 100 µM (inactive) | > 100 µM (inactive) | > 100 µM (inactive)
10 | CCOC(=O)C1=NOC2(C=C(Br)C(=O)C(Br)=C2)C1 | 22.1 µM (inactive) | 8.39 µM (inactive) | 2.97 µM (inactive) | 6.75 µM (inactive) | 3.7 µM (inactive) | 15.5 µM (inactive) | 1.64 µM (inactive) | 1.09 µM (active) | 3.05 µM (inactive) | 1.97 µM (inactive) | 6.78 µM (inactive) | 2.45 µM (inactive) | 0.923 µM (active) | 2.22 µM (inactive) | 14.8 µM (inactive) | 1.39 µM (inactive) | 16.9 µM (inactive) | 2.36 µM (inactive) | 0.902 µM (active) | 9.93 µM (inactive)
